In PubChem BioAssay AID328 (DTP/NCI, 2004):
“And” between values parts separate entries of the source, which are not always exact repeats. Equal values may be shown once. Toxic doses and inconclusive results are not listed.

System: BDF1 mice, P388 leukemia ip, median survival T/C
Experiment: NCI In Vivo Anticancer Drug Screen. Data for tumor model P388 Leukemia (intraperitoneal) in B6D2F1 (BDF1) mice
Details: endpoint: median survival time, higher = longer survival
Outline: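 In tumour-bearing mice, survival after compound treatment is set against the vehicle group and given as a quotient.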

[1] = dose: 50.0 mg/kg/injection, schedule: Q01DX009 (ip), vehicle: Klucel (hydroxypropylcellulose) (HPC)
[2] = dose: 100.0 mg/kg/injection, schedule: Q01DX009 (ip), vehicle: Klucel (hydroxypropylcellulose) (HPC)
[3] = dose: 200.0 mg/kg/injection, schedule: Q01DX009 (ip), vehicle: Klucel (hydroxypropylcellulose) (HPC)
[4] = dose: 400.0 mg/kg/injection, schedule: Q01DX009 (ip), vehicle: Klucel (hydroxypropylcellulose) (HPC)
[5] = dose: 25.0 mg/kg/injection, schedule: Q01DX009 (ip), vehicle: Klucel (hydroxypropylcellulose) (HPC)
[6] = dose: 100.0 mg/kg/injection, schedule: Q04DX003 (ip), vehicle: Klucel (hydroxypropylcellulose) (HPC)
[7] = dose: 200.0 mg/kg/injection, schedule: Q04DX003 (ip), vehicle: Klucel (hydroxypropylcellulose) (HPC)
[8] = dose: 400.0 mg/kg/injection, schedule: Q04DX003 (ip), vehicle: Klucel (hydroxypropylcellulose) (HPC)
[9] = dose: 12.5 mg/kg/injection, schedule: Q04DX003 (ip), vehicle: saline with Tween-80
[10] = dose: 25.0 mg/kg/injection, schedule: Q04DX003 (ip), vehicle: saline with Tween-80
[11] = dose: 33.0 mg/kg/injection, schedule: Q04DX003 (ip), vehicle: saline with Tween-80
[12] = dose: 100.0 mg/kg/injection, schedule: Q04DX003 (ip), vehicle: saline with Tween-80
[13] = dose: 200.0 mg/kg/injection, schedule: Q04DX003 (ip), vehicle: saline with Tween-80
[14] = dose: 50.0 mg/kg/injection, schedule: Q01DX010 (ip), vehicle: saline
[15] = dose: 100.0 mg/kg/injection, schedule: Q01DX010 (ip), vehicle: saline
[16] = dose: 200.0 mg/kg/injection, schedule: Q01DX010 (ip), vehicle: saline
[17] = dose: 50.0 mg/kg/injection, schedule: Q01DX009 (ip), vehicle: saline with Tween-80
[18] = dose: 100.0 mg/kg/injection, schedule: Q01DX009 (ip), vehicle: saline with Tween-80
[19] = dose: 200.0 mg/kg/injection, schedule: Q01DX009 (ip), vehicle: saline with Tween-80
[20] = dose: 400.0 mg/kg/injection, schedule: Q01DX009 (ip), vehicle: saline with Tween-80
[21] = dose: 400.0 mg/kg/injection, schedule: Q04DX003 (ip), vehicle: saline with Tween-80

## C=C(C)[C@@H]1CC[C@]2(C)CC[C@]3(C)[C@H](CC[C@@H]4[C@@]5(C)CC[C@H](O)C(C)(C)[C@@H]5CC[C@]43C)[C@@H]12
[1]
  T/C: 93 % of control
[2]
  T/C: 101 % of control
[3]
  T/C: 105 % of control
[4]
  T/C: 97 % of control

## COC(=O)c1ccc(C(=O)O)[n+]([O-])c1
[5]
  T/C: 96 % of control
dose: 25.0 mg/kg/injection, schedule: Q04DX003 (ip), vehicle: Klucel (hydroxypropylcellulose) (HPC)
  T/C: 100 % of control
dose: 50.0 mg/kg/injection, schedule: Q04DX003 (ip), vehicle: Klucel (hydroxypropylcellulose) (HPC)
  T/C: 104 % of control
[2]
  T/C: 88 % of control
[6]
  T/C: 113 % of control
[3]
  T/C: 89 % of control
[7]
  T/C: 95 % of control
[8]
  T/C: 87 % of control

## CN=C(N)c1ccc(NC(=O)c2ccc(C(=O)Nc3ccc(C(N)=NC)cc3)cc2)cc1
dose: 15.0 mg/kg/injection, schedule: Q01DX010 (ip), vehicle: saline
  T/C: 150 % of control and 160 % of control
dose: 30.0 mg/kg/injection, schedule: Q01DX010 (ip), vehicle: saline
  T/C: 160 % of control and 175 % of control
dose: 60.0 mg/kg/injection, schedule: Q01DX010 (ip), vehicle: saline
  T/C: 175 % of control and 180 % of control
dose: 120.0 mg/kg/injection, schedule: Q01DX010 (ip), vehicle: saline
  T/C: 160 % of control

## CCN1CC[N+](C)(CC)Cc2ccccc21 (stereo not given)
[9]
  T/C: 90 % of control
[10]
  T/C: 93 % of control

## O=NN(CCF)C(=O)NC1CCC(NC(=O)N(CCF)N=O)CC1 (stereo not given)
dose: 16.5 mg/kg/injection, schedule: Q04DX003 (ip), vehicle: saline with Tween-80
  T/C: 186 % of control
[11]
  T/C: 272 % of control
dose: 66.0 mg/kg/injection, schedule: Q04DX003 (ip), vehicle: saline with Tween-80
  T/C: 272 % of control
[12]
  T/C: 272 % of control
dose: 132.0 mg/kg/injection, schedule: Q04DX003 (ip), vehicle: alcohol
  T/C: 272 % of control
[13]
  T/C: 200 % of control

## Cc1ccc2c(ccc3c[n+]4ccccc4c(C)c32)c1
[9]
  T/C: 113 % of control
[10]
  T/C: 118 % of control
[11]
  T/C: 122 % of control

## CC(=O)Nc1ccc(N=Nc2ccccc2)cc1F
[2]
  T/C: 120 % of control
[6]
  T/C: 104 % of control
[7]
  T/C: 108 % of control
[4]
  T/C: 120 % of control
[8]
  T/C: 95 % of control

## CO[C@H]1/C=C/O[C@@]2(C)Oc3c(C)c(O)c4c(O)c(c(/C=N/N5CCN(C)CC5)c(O)c4c3C2=O)NC(=O)/C(C)=C\C=C\[C@H](C)[C@H](O)[C@@H](C)[C@@H](O)[C@@H](C)[C@H](OC(C)=O)[C@@H]1C
[14]
  T/C: 109 % of control
[15]
  T/C: 114 % of control
[16]
  T/C: 109 % of control
dose: 400.0 mg/kg/injection, schedule: Q01DX010 (ip), vehicle: saline
  T/C: 109 % of control

## O=C(CCl)Nc1ccc([As](=O)(O)O)cc1
dose: 12.5 mg/kg/injection, schedule: Q01DX009 (ip), vehicle: Klucel (hydroxypropylcellulose) (HPC)
  T/C: 100 % of control
[5]
  T/C: 100 % of control
[1]
  T/C: 90 % of control

## COc1ccc(CNCC(=O)OCc2ccccc2)cc1
dose: 25.0 mg/kg/injection, schedule: Q01DX009 (ip), vehicle: saline with Tween-80
  T/C: 92 % of control
[17]
  T/C: 101 % of control
[18]
  T/C: 88 % of control
[12]
  T/C: 111 % of control
[19]
  T/C: 102 % of control
[13]
  T/C: 109 % of control

## NC(=O)NCCCC(N)C(=O)O (stereo not given)
[14]
  T/C: 94 % of control
[15]
  T/C: 94 % of control
[16]
  T/C: 89 % of control

## CC(C)(C)c1cc(C(C)(C)c2ccccc2)cc(Cc2cc(C(C)(C)c3ccccc3)cc(C(C)(C)C)c2O)c1O
dose: 50.0 mg/kg/injection, schedule: Q01DX009 (ip), vehicle: saline + Tween-80 + alcohol
  T/C: 118 % of control
[17]
  T/C: 96 % of control
dose: 100.0 mg/kg/injection, schedule: Q01DX009 (ip), vehicle: saline + Tween-80 + alcohol
  T/C: 90 % of control
[18]
  T/C: 100 % of control
dose: 200.0 mg/kg/injection, schedule: Q01DX009 (ip), vehicle: saline + Tween-80 + alcohol
  T/C: 115 % of control
[19]
  T/C: 124 % of control
dose: 400.0 mg/kg/injection, schedule: Q01DX009 (ip), vehicle: saline + Tween-80 + alcohol
  T/C: 107 % of control

## CCOc1ccc(Br)cc1C=O
[18]
  T/C: 100 % of control
[12]
  T/C: 90 % of control
[19]
  T/C: 100 % of control
[13]
  T/C: 95 % of control
[20]
  T/C: 100 % of control
[21]
  T/C: 100 % of control

## COc1cccc2c1C(=O)c1c(O)c3c(c(O)c1C2=O)CC(O)(/C(C)=N/NC(=O)CCCCCCCCC(=O)N/N=C(\C)C1(O)Cc2c(O)c4c(c(O)c2C(OC2CC(N)C(O)C(C)O2)C1)C(=O)c1c(OC)cccc1C4=O)CC3OC1CC(N)C(O)C(C)O1 (stereo not given)
dose: 3.13 mg/kg/injection, schedule: Q01DX009 (ip), vehicle: water
  T/C: 172 % of control
dose: 6.25 mg/kg/injection, schedule: Q01DX009 (ip), vehicle: water
  T/C: 210 % of control
dose: 25.0 mg/kg/injection, schedule: Q01DX009 (ip), vehicle: water
  T/C: 88 % of control

## c1nc(SC2=NCCN2)c2[nH]cnc2n1
dose: 4.12 mg/kg/injection, schedule: Q01DX009 (ip), vehicle: saline
  T/C: 118 % of control
dose: 6.25 mg/kg/injection, schedule: Q01DX009 (ip), vehicle: saline
  T/C: 150 % of control
dose: 9.37 mg/kg/injection, schedule: Q01DX009 (ip), vehicle: saline
  T/C: 122 % of control
dose: 12.5 mg/kg/injection, schedule: Q01DX009 (ip), vehicle: saline
  T/C: 119 % of control
dose: 12.5 mg/kg/injection, schedule: Q04DX003 (ip), vehicle: saline
  T/C: 115 % of control
dose: 21.0 mg/kg/injection, schedule: Q01DX009 (ip), vehicle: saline
  T/C: 100 % of control
dose: 25.0 mg/kg/injection, schedule: Q01DX009 (ip), vehicle: saline
  T/C: 123 % of control
dose: 25.0 mg/kg/injection, schedule: Q04DX003 (ip), vehicle: saline
  T/C: 115 % of control
dose: 50.0 mg/kg/injection, schedule: Q04DX003 (ip), vehicle: saline
  T/C: 123 % of control

## CC(=O)OC1CCC2(C)C(=CCC3C2CCC2(C)C(OC(=O)c4ccccc4)CCC32)C1 (stereo not given)
dose: 100.0 mg/kg/injection, schedule: Q01DX001 (ip), vehicle: Klucel (hydroxypropylcellulose) (HPC)
  T/C: 100 % of control
dose: 100.0 mg/kg/injection, schedule: Q01DX009 (ip), vehicle: saline
  T/C: 110 % of control
[6]
  T/C: 120 % of control
dose: 200.0 mg/kg/injection, schedule: Q01DX001 (ip), vehicle: Klucel (hydroxypropylcellulose) (HPC)
  T/C: 100 % of control
dose: 200.0 mg/kg/injection, schedule: Q01DX009 (ip), vehicle: saline
  T/C: 95 % of control
[7]
  T/C: 105 % of control
dose: 400.0 mg/kg/injection, schedule: Q01DX001 (ip), vehicle: Klucel (hydroxypropylcellulose) (HPC)
  T/C: 100 % of control
dose: 400.0 mg/kg/injection, schedule: Q01DX009 (ip), vehicle: saline
  T/C: 105 % of control
[8]
  T/C: 110 % of control

## COc1ccccc1Cl
[18]
  T/C: 103 % of control
[12]
  T/C: 116 % of control
[19]
  T/C: 103 % of control
[13]
  T/C: 104 % of control
[20]
  T/C: 96 % of control
[21]
  T/C: 108 % of control

## C[N+]1(C2CCC3CCC2C3O)CCCCC1 (stereo not given)
dose: 100.0 mg/kg/injection, schedule: Q04DX003 (ip), vehicle: saline
  T/C: 90 % of control
dose: 200.0 mg/kg/injection, schedule: Q04DX003 (ip), vehicle: saline
  T/C: 122 % of control
